Results published in the supplement of paper PMC10883282.

How the values were obtained:
Experiment in all cases: relative viability vs DMSO control (72 h) (fraction); higher = more viable cells
HT1080 = system: HT1080
How it was run: (§1)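 After seeding at densities set for 80–90% confluence in 384-well plates, sarcoma cell lines waited 24 h before 2.5 µl of serially diluted compound was added. Source plates held 10 mM down to 0.0002 mM. Plates were incubated 72 h at 37 °C with 5% CO2, with 0.1% DMSO vehicle and a 5 µM positive control, and relative viability was taken from ATPLite as percent growth averaged over up to triplicate wells, with 1 set as full and 0 as none.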

SW872 = system: SW872
How it was run: as §1

SK-LMS-1 = system: SK-LMS-1
How it was run: as §1

KHOS-NP = system: KHOS-NP
How it was run: as §1

HS729 = system: HS729
How it was run: as §1

SK-ES-1 = system: SK-ES-1
How it was run: as §1

A204 = system: A204
How it was run: as §1

VA-ES-BJ = system: VA-ES-BJ
How it was run: as §1

SW684 = system: SW684
How it was run: as §1

G401 = system: G401
How it was run: as §1

SW982 = system: SW982
How it was run: as §1

RD-ES = system: RD-ES
How it was run: as §1

Cc1c(F)cc(C(=O)NC2CC2)cc1-c1ccc(C(=O)NCC(C)(C)C)cn1 [Losmapimod]
Settings	relative viability
A204, 0.00017 µM	1.06
A204, 0.00051 µM	1.07
A204, 0.00152 µM	1.07
A204, 0.00457 µM	1.06
A204, 0.01372 µM	1.1
A204, 0.04115 µM	1.07
A204, 0.1235 µM	1.07
A204, 0.3704 µM	1.03
A204, 1.111 µM	1.03
A204, 3.333 µM	0.992
A204, 10 µM	0.901
G401, 0.00017 µM	1.06
G401, 0.00051 µM	1.03
G401, 0.00152 µM	1.05
G401, 0.00457 µM	1.074
G401, 0.01372 µM	1.03
G401, 0.04115 µM	1.01
G401, 0.1235 µM	0.981
G401, 0.3704 µM	0.964
G401, 1.111 µM	0.955
G401, 3.333 µM	0.904
G401, 10 µM	0.887
HS729, 0.00017 µM	1.09
HS729, 0.00051 µM	1.04
HS729, 0.00152 µM	1.06
HS729, 0.00457 µM	1.02
HS729, 0.01372 µM	0.972
HS729, 0.04115 µM	0.954
HS729, 0.1235 µM	0.903
HS729, 0.3704 µM	0.848
HS729, 1.111 µM	0.818
HS729, 3.333 µM	0.805
HS729, 10 µM	0.809
HT1080, 0.00017 µM	1.09
HT1080, 0.00051 µM	1.09
HT1080, 0.00152 µM	1.12
HT1080, 0.00457 µM	1.11
HT1080, 0.01372 µM	1.1
HT1080, 0.04115 µM	1.149
HT1080, 0.1235 µM	1.16
HT1080, 0.3704 µM	1.13
HT1080, 1.111 µM	1.11
HT1080, 3.333 µM	1.09
HT1080, 10 µM	1.11
KHOS-NP, 0.00017 µM	1.08
KHOS-NP, 0.00051 µM	1.1
KHOS-NP, 0.00152 µM	1.09
KHOS-NP, 0.00457 µM	1.1
KHOS-NP, 0.01372 µM	1.11
KHOS-NP, 0.04115 µM	1.12
KHOS-NP, 0.1235 µM	1.097
KHOS-NP, 0.3704 µM	1.1
KHOS-NP, 1.111 µM	1.097
KHOS-NP, 3.333 µM	1.081
KHOS-NP, 10 µM	1.1
RD-ES, 0.00017 µM	1.01
RD-ES, 0.00051 µM	0.995
RD-ES, 0.00152 µM	1.02
RD-ES, 0.00457 µM	0.993
RD-ES, 0.01372 µM	0.998
RD-ES, 0.04115 µM	0.962
RD-ES, 0.1235 µM	0.947
RD-ES, 0.3704 µM	0.917
RD-ES, 1.111 µM	0.879
RD-ES, 3.333 µM	0.892
RD-ES, 10 µM	0.879
SK-ES-1, 0.00017 µM	1.08
SK-ES-1, 0.00051 µM	1.12
SK-ES-1, 0.00152 µM	1.09
SK-ES-1, 0.00457 µM	1.11
SK-ES-1, 0.01372 µM	1.07
SK-ES-1, 0.04115 µM	1.02
SK-ES-1, 0.1235 µM	1.01
SK-ES-1, 0.3704 µM	0.993
SK-ES-1, 1.111 µM	0.968
SK-ES-1, 3.333 µM	0.915
SK-ES-1, 10 µM	0.879
SK-LMS-1, 0.00017 µM	1.02
SK-LMS-1, 0.00051 µM	1.02
SK-LMS-1, 0.00152 µM	1.01
SK-LMS-1, 0.00457 µM	1
SK-LMS-1, 0.01372 µM	0.995
SK-LMS-1, 0.04115 µM	1.02
SK-LMS-1, 0.1235 µM	1.005
SK-LMS-1, 0.3704 µM	0.978
SK-LMS-1, 1.111 µM	0.981
SK-LMS-1, 3.333 µM	0.967
SK-LMS-1, 10 µM	0.946
SW684, 0.00017 µM	1.11
SW684, 0.00051 µM	1.2
SW684, 0.00152 µM	1.24
SW684, 0.00457 µM	1.21
SW684, 0.01372 µM	1.18
SW684, 0.04115 µM	1.15
SW684, 0.1235 µM	1.13
SW684, 0.3704 µM	1.25
SW684, 1.111 µM	1.21
SW684, 3.333 µM	1.18
SW684, 10 µM	1.19
SW872, 0.00017 µM	1.04
SW872, 0.00051 µM	1.08
SW872, 0.00152 µM	1.07
SW872, 0.00457 µM	1.05
SW872, 0.01372 µM	1.06
SW872, 0.04115 µM	1.04
SW872, 0.1235 µM	1.06
SW872, 0.3704 µM	1.04
SW872, 1.111 µM	1.05
SW872, 3.333 µM	1.04
SW872, 10 µM	1.04
SW982, 0.00017 µM	1.059
SW982, 0.00051 µM	1.07
SW982, 0.00152 µM	1.09
SW982, 0.00457 µM	1.07
SW982, 0.01372 µM	1.07
SW982, 0.04115 µM	1.07
SW982, 0.1235 µM	1.06
SW982, 0.3704 µM	1.07
SW982, 1.111 µM	1.06
SW982, 3.333 µM	1.02
SW982, 10 µM	1
VA-ES-BJ, 0.00017 µM	1.11
VA-ES-BJ, 0.00051 µM	1.1
VA-ES-BJ, 0.00152 µM	1.07
VA-ES-BJ, 0.00457 µM	1.07
VA-ES-BJ, 0.01372 µM	1.07
VA-ES-BJ, 0.04115 µM	1.06
VA-ES-BJ, 0.1235 µM	0.988
VA-ES-BJ, 0.3704 µM	1.03
VA-ES-BJ, 1.111 µM	1.03
VA-ES-BJ, 3.333 µM	1.02
VA-ES-BJ, 10 µM	1
